Data reported in US20100298285A1, “Biclycloheteroaryl Compounds as P2x7 Modulators and Uses Thereof” (priority 2006, published 2010).

These compounds were tested on IL-1β release, THP-1 cells (assay: IL-1β release assay in differentiated THP-1 cells stimulated with BzATP (Example 9)). Conditions: Homo sapiens; 0.3 μM compound ("+" symbols); differentiated THP-1 cells, 250 uM BzATP; read-out: IL-1β% Inhib. @ 0.3 or 0.1 μM.
Type: cell-based
In short: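 THP-1 cells differentiated 16 h with 100 ng/mL LPS + 100 ng/mL IFN-γ, re-primed 2 h with fresh LPS 100 ng/mL, pretreated 30 min with compound, then stimulated with BzATP 250 uM final for 45 min. Supernatant IL-1β by ELISA; background-adjusted % inhibition, IC50 from four-parameter logistic fit.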

Structure (SMILES)	inhibition at 0.3 µM [%]
O=C(Cc1cccc(C(F)(F)F)c1F)Nc1c(Cl)ccc2c1CCN(C(=O)Cc1ccc(Cl)cc1)C2 [Compound 3168]	0 to 25
O=C(Cc1cccc(C(F)(F)F)c1F)Nc1c(Cl)ccc2c1CCN(C(=O)c1ccc(C(F)(F)F)cc1F)C2 [Compound 3169]	0 to 25
O=C(Cc1cccc(C(F)(F)F)c1F)Nc1c(Cl)ccc2c1CCN(C(=O)c1ccccc1C(F)(F)F)C2 [Compound 3170]	0 to 25
Cc1ccc(F)c(C(=O)N2CCc3c(ccc(Cl)c3NC(=O)Cc3cccc(C(F)(F)F)c3F)C2)c1Cl [Compound 3171]	0 to 25
Cc1nn(-c2ccccc2)nc1C(=O)N1CCc2c(ccc(Cl)c2NC(=O)Cc2cccc(C(F)(F)F)c2F)C1 [Compound 3172]	0 to 25
O=C(Cc1cccc(C(F)(F)F)c1F)Nc1c(Cl)ccc2c1CCN(C(=O)C1COc3ccccc3O1)C2 (centres unmarked) [Compound 3174]	0 to 25
O=C(Cc1cccc(C(F)(F)F)c1F)Nc1c(Cl)ccc2c1CCN(C(=O)c1ccc(F)cc1F)C2 [Compound 3175]	0 to 25
Cc1ccccc1C(=O)N1CCc2c(ccc(Cl)c2NC(=O)Cc2cccc(C(F)(F)F)c2F)C1 [Compound 3176]	0 to 25
O=C(Cc1cccc(C(F)(F)F)c1F)Nc1c(Cl)ccc2c1CCN(C(=O)c1cc(F)ccc1F)C2 [Compound 3177]	0 to 25
O=C(Cc1cccc(C(F)(F)F)c1F)Nc1c(Cl)ccc2c1CCN(C(=O)c1ccccc1F)C2 [Compound 3178]	0 to 25
O=C(Cc1cccc(C(F)(F)F)c1F)Nc1c(Cl)ccc2c1CCN(C(=O)c1cccc(Cl)c1Cl)C2 [Compound 3179]	26 to 50
Cc1cc(C(=O)N2CCc3c(ccc(Cl)c3NC(=O)Cc3cccc(C(F)(F)F)c3F)C2)no1 [Compound 3180]	0 to 25
Cc1cc(C(=O)N2CCc3c(ccc(Cl)c3NC(=O)Cc3cccc(C(F)(F)F)c3F)C2)nn1C [Compound 3181]	0 to 25
O=C(Cc1cccc(C(F)(F)F)c1F)Nc1c(Cl)ccc2c1CCN(C(=O)/C=C/c1ccccc1)C2 [Compound 3182]	0 to 25
Cc1ccc(C(=O)N2CCc3c(ccc(Cl)c3NC(=O)Cc3cccc(C(F)(F)F)c3F)C2)cc1 [Compound 3183]	0 to 25
COc1ccccc1C(=O)N1CCc2c(ccc(Cl)c2NC(=O)Cc2cccc(C(F)(F)F)c2F)C1 [Compound 3184]	0 to 25
O=C(Cc1cccc(C(F)(F)F)c1F)Nc1c(Cl)ccc2c1CCN(C(=O)c1cccc3ccccc13)C2 [Compound 3185]	0 to 25
CCCC(=O)N1CCc2c(ccc(Cl)c2NC(=O)Cc2cccc(C(F)(F)F)c2F)C1 [Compound 3187]	0 to 25
CC(C)(C)c1ccc(C(=O)N2CCc3c(ccc(Cl)c3NC(=O)Cc3cccc(C(F)(F)F)c3F)C2)cc1 [Compound 3188]	≥ 76
O=C(Cc1cccc(C(F)(F)F)c1F)Nc1c(Cl)ccc2c1CCN(C(=O)c1ccc3ccccc3n1)C2 [Compound 3189]	0 to 25
O=C(Cc1cccc(C(F)(F)F)c1F)Nc1c(Cl)ccc2c1CCN(C(=O)c1ccncc1)C2 [Compound 3190]	0 to 25
COc1ccc(C(=O)N2CCc3c(ccc(Cl)c3NC(=O)Cc3cccc(C(F)(F)F)c3F)C2)cc1OC [Compound 3193]	0 to 25
O=C(Cc1cccc(C(F)(F)F)c1F)Nc1c(Cl)ccc2c1CCN(C(=O)CCC1CCCCC1)C2 [Compound 3194]	26 to 50
O=C(Cc1cccc(C(F)(F)F)c1F)Nc1c(Cl)ccc2c1CCN(C(=O)c1cc(Cl)cc(Cl)c1)C2 [Compound 3195]	0 to 25
O=C(Cc1cccc(C(F)(F)F)c1F)Nc1c(Cl)ccc2c1CCN(C(=O)c1ccc(C(F)(F)F)nc1)C2 [Compound 3196]	0 to 25
O=C(Cc1cccc(C(F)(F)F)c1F)Nc1c(Cl)ccc2c1CCN(C(=O)c1ccc(Oc3ccccc3)nc1)C2 [Compound 3197]	0 to 25

Same assay, conditions: Homo sapiens; THP-1 cells, BzATP 250 uM, four parameter logistic fit

IC50 [µM]	Structure (SMILES)
0.175	CC(=O)N1CCc2c(ccc(C)c2NC(=O)Cc2ccc(C(F)(F)F)c(F)c2)C1 [Compound 3201]
0.0858	CCC(=O)N1CCc2c(ccc(C)c2NC(=O)Cc2ccc(C(F)(F)F)c(F)c2)C1 [Compound 3203]
0.204	Cc1ccc2c(c1NC(=O)Cc1ccc(C(F)(F)F)c(F)c1)CCN(C(=O)CCC1CCCC1)C2 [Compound 3207]
0.0602	Cc1ccc2c(c1NC(=O)Cc1ccc(C(F)(F)F)c(F)c1)CCN(C(=O)C1CCCC1)C2 [Compound 3208]
0.0486	Cc1ccc2c(c1NC(=O)Cc1ccc(C(F)(F)F)c(F)c1)CCN(C(=O)C(C)C)C2 [Compound 3215]
0.0255	Cc1ccc2c(c1NC(=O)Cc1ccc(C(F)(F)F)c(F)c1)CCN(C(=O)C(C)(C)C)C2 [Compound 3220]
0.0619	Cc1ccc2c(c1NC(=O)Cc1ccc(C(F)(F)F)c(F)c1)CCN(C(=O)CCC1CCCCC1)C2 [Compound 3251]
0.425	O=C(Cc1ccc(C(F)(F)F)c(F)c1)Nc1cccc2c1CCN(CC(O)Cc1ccccc1)C2 (centres unmarked) [Compound 3257]
0.0514	CCS(=O)(=O)N1CCc2c(ccc(Cl)c2NC(=O)Cc2ccc(C(F)(F)F)c(F)c2)C1 [Compound 3272]
0.0607	O=C(Cc1ccc(C(F)(F)F)c(F)c1)Nc1c(Cl)ccc2c1CCN(S(=O)(=O)c1ccccc1Cl)C2 [Compound 3287]
0.0711	CC(C)S(=O)(=O)N1CCc2c(ccc(Cl)c2NC(=O)Cc2ccc(C(F)(F)F)c(F)c2)C1 [Compound 3304]
0.0348	O=C(Cc1cccc(C(F)(F)F)c1F)Nc1c(Cl)ccc2c1CCN(S(=O)(=O)C1CC1)C2 [Compound 3313]
0.0472	CCCCS(=O)(=O)N1CCc2c(ccc(Cl)c2NC(=O)Cc2cccc(C(F)(F)F)c2F)C1 [Compound 3327]
0.107	Cc1ccc2c(c1NC(=O)Cc1ccc(C(F)(F)F)c(F)c1)CCN(S(=O)(=O)CC(F)(F)F)C2 [Compound 3406]
0.083	Cc1ccc2c(c1NC(=O)Cc1ccc(C(F)(F)F)c(F)c1)CCN(S(=O)(=O)C(C)C)C2 [Compound 3414]
0.0785	Cc1ccc2c(c1NC(=O)Cc1ccc(C(F)(F)F)c(F)c1)CCN(S(=O)(=O)c1c(F)cccc1F)C2 [Compound 3425]
0.0252	CCS(=O)(=O)N1CCc2c(ccc(C)c2NC(=O)Cc2ccc(C(F)(F)F)c(F)c2)C1 [Compound 3433]
0.0654	CCCCS(=O)(=O)N1CCc2c(ccc(C)c2NC(=O)Cc2ccc(C(F)(F)F)c(F)c2)C1 [Compound 3448]
0.0279	COc1ccc(OC)c(S(=O)(=O)N2CCc3c(ccc(C)c3NC(=O)Cc3ccc(C(F)(F)F)c(F)c3)C2)c1 [Compound 3452]
0.0413	Cc1ccc2c(c1NC(=O)Cc1ccc(C(F)(F)F)c(F)c1)CCN(S(=O)(=O)c1ccccc1F)C2 [Compound 3460]
0.0698	Cc1ccc2c(c1NC(=O)Cc1ccc(C(F)(F)F)c(F)c1)CCN(C(=O)C1(O)CC1)C2 [Compound 3468]
0.0525	Cc1ccc2c(c1NC(=O)Cc1ccc(C(F)(F)F)c(F)c1)CCN(C(=O)C1CC1)C2 [Compound 3469]
0.0322	Cc1ccc2c(c1NC(=O)Cc1ccc(C(F)(F)F)c(F)c1)CCN(C(=O)C(C)(C)O)C2 [Compound 3470]
0.261	Cc1ccc2c(c1NC(=O)Cc1ccc(C(F)(F)F)c(F)c1)CCN(C(=O)C1(C)CC1)C2 [Compound 3471]
